Measurements published in PMC3581696 (The Journal of General Physiology, 2013).

Key:
[1] = Solubility limit in recording / aqueous solutions; assay type: physicochemical; details: aqueous solutions
[2] = biological target: T1, purified C-linker/CNBHD of mEAG1 channels (Mus musculus, UniProt Q60603); assay: Tryptophan-to-flavonoid FRET binding assay; details: 100 µM flavonoid; 4 µM protein
T1 sequence (Q60603 505-702): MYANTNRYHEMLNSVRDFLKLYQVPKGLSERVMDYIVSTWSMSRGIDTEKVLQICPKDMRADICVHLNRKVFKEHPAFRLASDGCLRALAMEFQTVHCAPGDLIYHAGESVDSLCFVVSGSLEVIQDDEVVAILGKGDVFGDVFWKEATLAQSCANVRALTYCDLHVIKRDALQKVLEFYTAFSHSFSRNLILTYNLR

mEAG1 channel = biological target: T2, mEAG1 channel (Mus musculus, UniProt Q60603); assay: Inside-out patch-clamp of wild-type mEAG1 channels expressed in Xenopus oocytes; assay type: cell-based; details: 50 µM
T2 sequence (Q60603 1-989): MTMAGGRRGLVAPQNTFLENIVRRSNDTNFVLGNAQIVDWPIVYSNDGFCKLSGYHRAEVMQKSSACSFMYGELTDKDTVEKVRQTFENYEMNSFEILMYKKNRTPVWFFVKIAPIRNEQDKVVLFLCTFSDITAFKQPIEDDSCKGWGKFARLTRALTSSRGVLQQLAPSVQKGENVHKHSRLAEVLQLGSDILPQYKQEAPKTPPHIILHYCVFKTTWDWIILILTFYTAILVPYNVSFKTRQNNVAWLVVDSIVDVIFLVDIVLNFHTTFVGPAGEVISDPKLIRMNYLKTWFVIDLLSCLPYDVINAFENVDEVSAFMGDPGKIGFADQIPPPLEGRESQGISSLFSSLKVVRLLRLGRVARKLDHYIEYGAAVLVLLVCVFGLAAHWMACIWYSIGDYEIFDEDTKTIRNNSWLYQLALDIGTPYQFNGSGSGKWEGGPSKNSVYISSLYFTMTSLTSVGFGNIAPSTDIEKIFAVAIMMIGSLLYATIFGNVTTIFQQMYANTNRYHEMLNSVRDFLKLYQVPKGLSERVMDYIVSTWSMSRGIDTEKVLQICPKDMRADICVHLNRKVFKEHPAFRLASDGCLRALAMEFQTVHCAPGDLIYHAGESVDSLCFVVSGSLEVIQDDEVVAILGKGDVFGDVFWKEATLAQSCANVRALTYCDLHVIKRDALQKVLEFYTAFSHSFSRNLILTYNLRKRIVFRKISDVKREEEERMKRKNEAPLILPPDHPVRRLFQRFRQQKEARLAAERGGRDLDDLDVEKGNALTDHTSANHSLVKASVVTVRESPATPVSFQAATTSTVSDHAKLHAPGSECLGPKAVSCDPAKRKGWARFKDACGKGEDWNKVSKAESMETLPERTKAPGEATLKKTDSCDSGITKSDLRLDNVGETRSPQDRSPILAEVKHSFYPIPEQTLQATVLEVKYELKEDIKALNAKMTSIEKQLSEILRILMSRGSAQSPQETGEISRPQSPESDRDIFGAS

SMILES	solubility [1]	decrease of peak fluorescence intensity of the C-linker/CNBHD at 341 nm [2]	effect on steady-state or kinetic properties of mEAG1 channel gating (mEAG1 channel)
O=c1c(O)c(-c2ccc(O)c(O)c2)oc2cc(O)cc(O)c12 [Quercetin, 2-(3,4-dihydroxyphenyl)-3,5,7-trihydroxy-4H-chromen-4-one]	≤ 150 µM	51%	–
COc1ccc(-c2cc(=O)c3c(O)cc(O)cc3o2)cc1 [Acacetin, 5,7-dihydroxy-2-(4-methoxyphenyl)chromen-4-one]	–	–	did not alter
Oc1cc(O)c2c(c1)O[C@H](c1ccc(O)c(O)c1)[C@@H](O)C2 [Catechin, (2R,3S)-2-(3,4-dihydroxyphenyl)-3,4-dihydro-2H-chromene-3,5,7-triol]	–	–	did not alter
C[C@]12CC[C@@H]3c4ccc(O)cc4CC[C@H]3[C@@H]1CC[C@@H]2O [Estradiol, (17β)-estra-1,3,5(10)-triene-3,17-diol]	–	–	did not shift the voltage dependence or slow the deactivation
